ChEMBL document CHEMBL1128323, “Antifungal agents. 9. 3-Aryl-4-[alpha-(1H-imidazol-1-yl)arylmethyl]pyrroles: a new class of potent anti-Candida agents” (1995)
In brackets after ≈: the same amount, converted by molar mass.

Tests used:
Type in all cases: functional
Candida albicans [1] = test: Percent resistance against Candida albicans (40 clinical isolates) at 256 micro g/mL (pH=5.8), activity is expressed as R%.
Candida albicans [2] = test: Resistance against Candida. albicans (40 clinical isolates) at 256 ug/mL (pH=7.2), activity is expressed as R%.
Candida albicans [3] = test: Inhibitory activity against Candida albicans (40 clinical isolates), determined at pH-5.8
Candida albicans [4] = test: Inhibitory activity against Candida albicans (40 clinical isolates), determined at pH-7.2
Candida [5] = test: Inhibitory activity against Candida. species. (40 clinical isolates), determined at pH-5.8
Candida [6] = test: Inhibitory activity against Candida. species. (40 clinical isolates), determined at pH-7.2
Candida [7] = test: Inhibitory activity against Candida. species (40 clinical isolates), determined at pH-5.8
Candida [8] = test: 50% inhibitory activity against the Candida. species (40 clinical isolates) was determined at pH-7.2
Candida [9] = test: 90% inhibitory activity against Candida. species (40 clinical isolates) determined at pH-7.2
Candida [10] = test: Resistance against all Candida. species (40 clinical isolates) at 256 micro g/mL (pH=5.8). Activity is expressed as R%.
Candida [11] = test: Percent resistance against all Candida. species (40 clinical isolates) at 256 micro g/mL (pH=7.2), activity is expressed as R%.
Candida albicans [12] = test: Inhibitory activity against the Candida albicans (40 clinical isolates), determined at pH-5.8
Candida albicans [13] = test: Inhibitory activity against the Candida albicans (40 clinical isolates), determined at pH-7.2
Candida albicans [14] = test: 50% inhibitory activity against Candida albicans (40 clinical isolates) determined at pH-5.8
Candida albicans [15] = test: 50% inhibitory activity against Candida albicans (40 clinical isolates) determined at pH-7.2; conditions: Candida albicans; read-out: MIC50

| SMILES | R (Candida albicans [1]) [%] | R (Candida albicans [2]) [%] | MIC (Candida albicans [3]) [µg/mL] | MIC (Candida albicans [4]) [µg/mL] | MIC (Candida [5]) [µg/mL] | MIC (Candida [6]) [µg/mL] | MIC50 (Candida [7]) [µg/mL] | MIC90 (Candida [7]) [µg/mL] | MIC50 (Candida [8]) [µg/mL] | MIC90 (Candida [9]) [µg/mL] | R (Candida [10]) [%] | R (Candida [11]) [%] | MIC90 (Candida albicans [12]) [µg/mL] | MIC90 (Candida albicans [13]) [µg/mL] | MIC50 (Candida albicans [14]) [µg/mL] | MIC50 (Candida albicans [15]) [µg/mL] |
| --- | --- | --- | --- | --- | --- | --- | --- | --- | --- | --- | --- | --- | --- | --- | --- | --- |
| Fc1ccc(C(c2c[nH]cc2-c2ccccc2Cl)n2ccnc2)cc1 (stereo not drawn) | 0 | 0 | 48.3 (≈ 137 µM) | 36.5 (≈ 104 µM) | 71.1 (≈ 202 µM) | 107 (≈ 305 µM) | 64 (≈ 182 µM) | 64 (≈ 182 µM) | 64 (≈ 182 µM) | 256 (≈ 728 µM) | 0 | 0 | 64 (≈ 182 µM) | 64 (≈ 182 µM) | 32 (≈ 91 µM) | 32 (≈ 91 µM) |
| Clc1ccc(C(c2c[nH]cc2-c2ccccc2)n2ccnc2)c(Cl)c1 (stereo not drawn) | 100 | 100 | > 256 | > 256 | > 256 | > 256 | > 256 | > 256 | > 256 | > 256 | 100 | 100 | > 256 | > 256 | > 256 | > 256 |
| Clc1ccc(-c2c[nH]cc2C(c2cccc3ccccc23)n2ccnc2)cc1 (stereo not drawn) | 0 | 0 | 11.2 (≈ 29.2 µM) | 10.1 (≈ 26.3 µM) | 16.6 (≈ 43.2 µM) | 29 (≈ 75.5 µM) | 8 (≈ 20.8 µM) | 32 (≈ 83.4 µM) | 16 (≈ 41.7 µM) | 32 (≈ 83.4 µM) | 0 | 0 | 16 (≈ 41.7 µM) | 16 (≈ 41.7 µM) | 4 (≈ 10.4 µM) | 1 (≈ 2.6 µM) |
| O=[N+]([O-])c1ccc(C(c2c[nH]cc2-c2ccc(Cl)c(Cl)c2)n2ccnc2)cc1 (stereo not drawn) | 50 | 50 | > 283 | > 312 | > 256 | > 256 | > 256 | > 256 | > 256 | > 256 | 100 | 100 | > 256 | > 256 | 256 (≈ 619 µM) | 256 (≈ 619 µM) |
| Clc1ccc(C(c2c[nH]cc2-c2ccccc2Cl)n2ccnc2)cc1Cl (stereo not drawn) | 0 | 0 | 13.8 (≈ 34.3 µM) | 12.7 (≈ 31.5 µM) | 24.8 (≈ 61.6 µM) | 36.2 (≈ 89.9 µM) | 32 (≈ 79.5 µM) | 32 (≈ 79.5 µM) | 32 (≈ 79.5 µM) | 64 (≈ 159 µM) | 0 | 0 | 32 (≈ 79.5 µM) | 32 (≈ 79.5 µM) | 8 (≈ 19.9 µM) | 16 (≈ 39.7 µM) |
| Clc1ccc(-c2c[nH]cc2C(c2ccc(Cl)c(Cl)c2)n2ccnc2)c(Cl)c1 (stereo not drawn) | 0 | 0 | 7.2 (≈ 16.5 µM) | 19.6 (≈ 44.8 µM) | 14.2 (≈ 32.5 µM) | 21.3 (≈ 48.7 µM) | 16 (≈ 36.6 µM) | 16 (≈ 36.6 µM) | 16 (≈ 36.6 µM) | 32 (≈ 73.2 µM) | 0 | 0 | 32 (≈ 73.2 µM) | 32 (≈ 73.2 µM) | 2 (≈ 4.58 µM) | 16 (≈ 36.6 µM) |
| Nc1ccc(C(c2c[nH]cc2-c2ccc(Cl)cc2)n2ccnc2)cc1 (stereo not drawn) | 0 | 0 | 42.8 (≈ 123 µM) | 98.2 (≈ 282 µM) | 82.5 (≈ 237 µM) | 184 (≈ 527 µM) | 82.5 (≈ 237 µM) | 82.5 (≈ 237 µM) | 128 (≈ 367 µM) | 128 (≈ 367 µM) | 0 | 0 | 128 (≈ 367 µM) | 128 (≈ 367 µM) | 32 (≈ 91.7 µM) | 64 (≈ 183 µM) |
| Clc1ccc(-c2c[nH]cc2C(c2ccccc2)n2ccnc2)c(Cl)c1 (stereo not drawn) | 0 | 0 | 8.4 (≈ 22.8 µM) | 5.4 (≈ 14.7 µM) | 23.5 (≈ 63.8 µM) | 16.6 (≈ 45.1 µM) | 32 (≈ 86.9 µM) | 32 (≈ 86.9 µM) | 16 (≈ 43.4 µM) | 32 (≈ 86.9 µM) | 0 | 0 | 16 (≈ 43.4 µM) | 16 (≈ 43.4 µM) | 4 (≈ 10.9 µM) | 2 (≈ 5.43 µM) |
| Nc1ccc(C(c2c[nH]cc2-c2ccccc2Cl)n2ccnc2)cc1 (stereo not drawn) | 0 | 0 | 100 (≈ 288 µM) | 131 (≈ 376 µM) | 201 (≈ 576 µM) | > 222 | 256 (≈ 734 µM) | 256 (≈ 734 µM) | 256 (≈ 734 µM) | 256 (≈ 734 µM) | 50 | 50 | 256 (≈ 734 µM) | 256 (≈ 734 µM) | 64 (≈ 183 µM) | 64 (≈ 183 µM) |
| Clc1ccc(-c2c[nH]cc2C(c2ccc(-c3ccccc3)cc2)n2ccnc2)cc1 (stereo not drawn) | 0 | 40 | > 26.5 | > 150 | 28.4 (≈ 69.3 µM) | > 352 | 32 (≈ 78.1 µM) | 128 (≈ 312 µM) | > 256 | > 256 | 0 | 60 | 256 (≈ 625 µM) | 256 (≈ 625 µM) | 8 (≈ 19.5 µM) | 64 (≈ 156 µM) |
| Cc1ccc(C(c2c[nH]cc2-c2ccc(Cl)c(Cl)c2)n2ccnc2)cc1 (stereo not drawn) | 0 | 0 | 7.9 (≈ 20.7 µM) | 5.8 (≈ 15.2 µM) | 14.2 (≈ 37.1 µM) | 17.5 (≈ 45.8 µM) | 16 (≈ 41.9 µM) | 16 (≈ 41.9 µM) | 16 (≈ 41.9 µM) | 32 (≈ 83.7 µM) | 0 | 0 | 16 (≈ 41.9 µM) | 16 (≈ 41.9 µM) | 4 (≈ 10.5 µM) | 4 (≈ 10.5 µM) |
| Clc1ccc(-c2c[nH]cc2C(c2ccc(-n3cccc3)cc2)n2ccnc2)cc1Cl (stereo not drawn) | 40 | 50 | > 264 | > 289 | > 256 | > 438 | > 256 | > 256 | > 256 | > 256 | 100 | 80 | > 256 | > 256 | 128 (≈ 295 µM) | 128 (≈ 295 µM) |
| Clc1ccc(-c2c[nH]cc2C(c2ccc(Cl)cc2)n2ccnc2)cc1 (stereo not drawn) | 0 | 0 | 12.3 (≈ 33.4 µM) | 16.3 (≈ 44.3 µM) | 20.2 (≈ 54.9 µM) | 21.3 (≈ 57.8 µM) | 16 (≈ 43.4 µM) | 32 (≈ 86.9 µM) | 16 (≈ 43.4 µM) | 32 (≈ 86.9 µM) | 0 | 0 | 32 (≈ 86.9 µM) | 32 (≈ 86.9 µM) | 8 (≈ 21.7 µM) | 16 (≈ 43.4 µM) |
